Patent publication US4146622A, “Aziridinyl quinone anti-transplanted tumor agents” (priority 1977, dated 1979)
≈ marks a conversion by molar mass, not a printed value. Where “and” joins values, the source holds several entries; their conditions need not be identical. Equal values may be shown once. Entries after “also recorded” stand apart in the source; their conditions may differ. Read-outs that look alike come from different tables or passages of the source.

Tests used:
lymphoid leukemia L1210 [1] = test: Intracerebral (IC) lymphoid leukemia L1210 test; format: in vivo, murine; conditions: for antitumor activity: IC L1210; for OD (optimum dose) / ILS (percentage increase in life span): Table X; for ILS (%) IC L1210: Table XI, outstanding activity
[2] = test system: P388 lymphocytic leukemia; test: Intraperitoneal (IP) lymphocytic leukemia P388 transplanted mouse tumor test; format: in vivo, murine; conditions: Table IX; for OD (optimum dose): IP P388, QD1-9; for ILS (percentage increase in life span): IP P388, QD1-9, at OD
Source text: (§1) ^b Ip tumor implantation, ip QD1-9 treatment schedule.
(§2) The L1210, P388 and B16 test systems described in Table II utilize intraperitoneal (IP) tumor implantation and IP drug treatment while the Lewis lung system employs subcutaneous tumor implantation and IP treatment.
(§3) Aqueous saline solution (0.9%) was used as the drug vehicle. Normally, five doses were employed per experiment with the top dose chosen to produce toxicity. The lower doses were 50% of each preceeding dose.
(§4) Consistent with NCI antitumor test protocols, intraperitoneal (IP) administration of the drug was employed with all five tumor systems investigated. Tumor implantation was IP in the systems designated IP leukemia L1210 and P388 as well as B16 melanoma.

B16 melanocarcinoma = test: Intraperitoneal B16 melanocarcinoma transplanted mouse tumor test; format: in vivo, murine; conditions: for ILS (percentage increase in life span) / OD (optimum dose): Table IX; for ILS (percentage increase in life span): B16, QD1-9, at OD; for OD (optimum dose): B16, QD1-9
Source text: as §1, §2, §3, §4

ependymoblastoma = test: Intracerebral (IC) ependymoblastoma (EM) brain tumor test; format: in vivo, murine; conditions: for antitumor activity: IC ependymoblastoma (EM); for OD (optimum dose) / ILS (percentage increase in life span) / animals alive per 6 test animals on day of termination: Table X, IC ependymoblastoma; for OD (optimum dose): QD1-5; for ILS (percentage increase in life span) / animals alive per 6 test animals on day of termination: QD1-5, at OD; for animals alive per 6 test animals on day of termination / survivors (number in parentheses) EM: day 60; for survivors (number in parentheses) EM: Table XI, per 6 test animals
Source text: ^c Ic tumor implantation, ip QD1-5 treatment schedule.
^g Number of animals alive per six test animals on day of termination
of experiment (day 99 for expt 133 and day 60 for expt 136 and 144).
A third IC transplanted mouse tumor model, the ependymoblastoma system, was also studied. This system requires intracerebral implantation of a solid tumor fragment while the IC L1210 and IC P388 systems utilize IC inoculated ascites tumor fluid. All three use IP drug treatment however. […] Cures (survivors from the group of six mice on the last day of the experiment) are indicated. Experiments 136 and 144 were terminated on day 60. Since the number of cures was about the same, the differences in T/C values in these two experiments reflect differences in the life span of the two different sets of control animals. Experiment 133 was terminated on day 99 with a resulting higher activity value.
The hydrophilic dihydroxypropylamino compound (No. 39), which was curative in the IP L1210 and P388 leukemia systems, was active but gave a large spread in ILS values (53-186%). […] Again, its hydrophilic character may present transport problems in this IC tumor system.

[3] = Room temperature water solubility; format: physicochemical
Description: In the following examples, all melting points are uncorrected and were recorded on a Thomas-Hoover capillary melting point apparatus. Elemental analyses were performed by NIAMDD, NIH, Bethesda, Maryland. Fluoranil, ethyleneimine and 2l -methylethyleneimine were obtained commerically. […] New compounds were identified by nmr and ir spectroscopy. In the tetraamino derivatives, the methylene protons of the aziridine rings usually occurred as a singlet at δ2.0-2.2 in CDCl3 or DMSO-d6. This absorption appeared at δ2.40 (CDCl3) for compound 11. Carbonyl absorption frequencies (nujol mull) occurred in the range 1620-1640 cm^-1 for the tetraamino compounds. Satisfactory elemental analyses (+0.4% of calculated values) are indicated by elemental symbols in Table VII. Room temperature water solubilities were determined by the incremental addition (pipet) of water to a weighed amount of compound with shaking. The solubility values in Table VII must be considered as approximate.

lymphoid leukemia L1210 [4] = test: Intraperitoneal (IP) lymphoid leukemia L1210 transplanted mouse tumor test; format: in vivo, murine; conditions: for OD (optimum dose) / animals alive per 6 test animals on day of termination / ILS (percentage increase in life span) / T - C (average weight change of test group minus control): Table VIII; for animals alive per 6 test animals on day of termination / survivors (number in parentheses) IP L1210: day 30; for T - C (average weight change of test group minus control): day 5; for ILS (%) IP L1210 / survivors (number in parentheses) IP L1210: Table XI; for ILS (%) IP L1210: outstanding activity; for survivors (number in parentheses) IP L1210: per 6 test animals
Source text: ^(a) Day 1-9 treatment schedule (9 injections)
^(b) Day 1,5,9 treatment schedule (3 injections)
^(c) Day 1 only treatment schedule (1 injection)
^(f) Percentage increase in life span of treated animals [(treated
survival .div. control survival) × 100%] - 100%

[5] = Octanol/H2O partition coefficient (log P); format: physicochemical; conditions: Table VII; octanol/H2O
Source text: ^(b) Octanol/H2 O values determined by C. Hansch and M. Yamakawa

lymphoid leukemia L1210 [6] = conditions: cited from earlier work
[7] = water, Table VII, room temperature, approximate, read-out: Approx. H2O Sol.
[8] = IP L1210, Day 1 only (1 injection)
[9] = IP L1210, Q4D(1,5,9) (3 injections)

SMILES: CNC1=C(N2CC2)C(=O)C(NC)=C(N2CC2)C1=O [Compound 34]
- antitumor activity (lymphoid leukemia L1210 [1]): most active; also recorded: significant activity
- OD (optimum dose) (lymphoid leukemia L1210 [1]; IC L1210, QD1-9): 0.4 mg/kg/injection and 0.2 mg/kg/injection
- ILS (percentage increase in life span) (lymphoid leukemia L1210 [1]; IC L1210, QD1-9, at OD): 68% and 60%
- ILS (%) IC L1210 (lymphoid leukemia L1210 [1]): 68%
- OD (optimum dose) [2]: 0.2 mg/kg/injection and 0.1 mg/kg/injection
- ILS (percentage increase in life span) [2]: 95% and 69%
- antitumor activity (B16 melanocarcinoma; B16 melanoma): approached minimal reproducible activity
- ILS (percentage increase in life span) (B16 melanocarcinoma): 39% and 29%
- antitumor activity (ependymoblastoma): among the most active materials; also recorded: highly active
- OD (optimum dose) (ependymoblastoma): 0.2 mg/kg/injection and 0.4 mg/kg/injection
- ILS (percentage increase in life span) (ependymoblastoma): 219% and 218%
- animals alive per 6 test animals on day of termination (ependymoblastoma): 5 and 4
- survivors (number in parentheses) EM (ependymoblastoma): 5
- solubility [3, 7]: < 100 µg/mL
- OD (optimum dose) (lymphoid leukemia L1210 [4]; [8]): 0.7 mg/kg/injection
- OD (optimum dose) (lymphoid leukemia L1210 [4]; [9]): 0.8 mg/kg/injection and 0.4 mg/kg/injection
- OD (optimum dose) (lymphoid leukemia L1210 [4]; IP L1210, QD1-9 (9 injections)): 0.2 mg/kg/injection
- animals alive per 6 test animals on day of termination (lymphoid leukemia L1210 [4]; IP L1210, QD1-9, at OD): 1

SMILES: CCNC1=C(N2CC2)C(=O)C(NCC)=C(N2CC2)C1=O [Compound 35, 2,5-Diaziridinyl-3,6-bis(ethylamino)-1,4-benzoquinone]
- OD (optimum dose) (lymphoid leukemia L1210 [1]; IC L1210, QD1-9): 3.0 mg/kg/injection
- ILS (percentage increase in life span) (lymphoid leukemia L1210 [1]; IC L1210, QD1-9, at OD): 44% and 40%
- ILS (percentage increase in life span) [2]: 160% and 103%
- OD (optimum dose) (B16 melanocarcinoma): 0.4 mg/kg/injection and 0.7 mg/kg/injection
- ILS (percentage increase in life span) (B16 melanocarcinoma): 26% and 24%
- antitumor activity (ependymoblastoma): most active
- OD (optimum dose) (ependymoblastoma): 1.5 mg/kg/injection
- ILS (percentage increase in life span) (ependymoblastoma): 218% and 187%
- animals alive per 6 test animals on day of termination (ependymoblastoma): 2
- survivors (number in parentheses) EM (ependymoblastoma): 2
- solubility [3, 7]: 500 µg/mL (≈ 1810 µM)
- antitumor activity (lymphoid leukemia L1210 [4]; IP L1210, tetraaminobenzoquinone series (Table VIII)): activity appears to peak
- OD (optimum dose) (lymphoid leukemia L1210 [4]; [8]): 1.5 mg/kg/injection
- ILS (percentage increase in life span) (lymphoid leukemia L1210 [4]; IP L1210, Day 1 only, at OD): 68% and 54%
- OD (optimum dose) (lymphoid leukemia L1210 [4]; [9]): 3.0 mg/kg/injection and 1.5 mg/kg/injection
- ILS (percentage increase in life span) (lymphoid leukemia L1210 [4]; IP L1210, Q4D(1,5,9), at OD): 75% and 57%
- OD (optimum dose) (lymphoid leukemia L1210 [4]; IP L1210, QD1-9 (9 injections)): 1.5 mg/kg/injection
- ILS (percentage increase in life span) (lymphoid leukemia L1210 [4]; IP L1210, QD1-9, at OD): 112% and 91%
- T - C (average weight change of test group minus control) (lymphoid leukemia L1210 [4]; IP L1210, QD1-9, at OD): -3.3 grams
- animals alive per 6 test animals on day of termination (lymphoid leukemia L1210 [4]; IP L1210, QD1-9, at OD): 2 and 1
- ILS (%) IP L1210 (lymphoid leukemia L1210 [4]): 112%
- survivors (number in parentheses) IP L1210 (lymphoid leukemia L1210 [4]): 2

SMILES: NC(=O)CNC1=C(N2CC2)C(=O)C(NCC(N)=O)=C(N2CC2)C1=O [Compound 40]
- ILS (percentage increase in life span) (lymphoid leukemia L1210 [1]; IC L1210, QD1-9, at OD): 16%
- OD (optimum dose) [2]: 2.0 mg/kg/injection
- ILS (percentage increase in life span) [2]: 85% and 71%
- ILS (percentage increase in life span) (B16 melanocarcinoma): 37% and 22%
- OD (optimum dose) (ependymoblastoma): 2.0 mg/kg/injection and 1.0 mg/kg/injection
- ILS (percentage increase in life span) (ependymoblastoma): 64% and 50%
- solubility [3, 7]: 500 µg/mL (≈ 1500 µM)
- OD (optimum dose) (lymphoid leukemia L1210 [4]; [8]): 10.0 mg/kg/injection
- ILS (percentage increase in life span) (lymphoid leukemia L1210 [4]; IP L1210, Day 1 only, at OD): 21% and 15%
- OD (optimum dose) (lymphoid leukemia L1210 [4]; [9]): 8.0 mg/kg/injection
- OD (optimum dose) (lymphoid leukemia L1210 [4]; IP L1210, QD1-9 (9 injections)): 10.0 mg/kg/injection
- ILS (percentage increase in life span) (lymphoid leukemia L1210 [4]; IP L1210, QD1-9, at OD): 92% and 91%

SMILES: CN(C)C1=C(N2CC2)C(=O)C(N(C)C)=C(N2CC2)C1=O [Compound 41, 2,5-Diaziridinyl-3,6-bis(dimethylamino)-1,4-benzoquinone]
- antitumor activity (lymphoid leukemia L1210 [1]): most active; also recorded: significant activity
- OD (optimum dose) (lymphoid leukemia L1210 [1]; IC L1210, Q4D(1,5,9)): 3.0 mg/kg/injection
- ILS (percentage increase in life span) (lymphoid leukemia L1210 [1]; IC L1210, Q4D(1,5,9), at OD): 72% and 56%
- ILS (%) IC L1210 (lymphoid leukemia L1210 [1]): 72%
- OD (optimum dose) [2]: 1.0 mg/kg/injection and 0.5 mg/kg/injection
- ILS (percentage increase in life span) [2]: 74% and 37%
- OD (optimum dose) (B16 melanocarcinoma): 0.2 mg/kg/injection
- ILS (percentage increase in life span) (B16 melanocarcinoma): 16% and 12%
- antitumor activity (ependymoblastoma): among the most active materials
- OD (optimum dose) (ependymoblastoma): 1.0 mg/kg/injection and 0.5 mg/kg/injection
- ILS (percentage increase in life span) (ependymoblastoma): 215% and 190%
- animals alive per 6 test animals on day of termination (ependymoblastoma): 5 and 4
- survivors (number in parentheses) EM (ependymoblastoma): 5
- solubility [3]: increases the solubility greatly
- solubility [3, 7]: 10000 µg/mL (≈ 36200 µM)
- OD (optimum dose) (lymphoid leukemia L1210 [4]; [8]): 1.5 mg/kg/injection
- ILS (percentage increase in life span) (lymphoid leukemia L1210 [4]; IP L1210, Day 1 only, at OD): 21% and 15%
- OD (optimum dose) (lymphoid leukemia L1210 [4]; [9]): 3.0 mg/kg/injection
- ILS (percentage increase in life span) (lymphoid leukemia L1210 [4]; IP L1210, Q4D(1,5,9), at OD): 120% and 73%
- animals alive per 6 test animals on day of termination (lymphoid leukemia L1210 [4]; IP L1210, Q4D(1,5,9), at OD): 1
- ILS (%) IP L1210 (lymphoid leukemia L1210 [4]): 120%
- survivors (number in parentheses) IP L1210 (lymphoid leukemia L1210 [4]): 1

SMILES: O=C1C(N2CCOCC2)=C(N2CC2)C(=O)C(N2CCOCC2)=C1N1CC1 [Compound 46, 2,5-Diaziridinyl-3,6-dimorpholino-1,4-benzoquinone]
- OD (optimum dose) [2]: 0.5 mg/kg/injection and 0.7 mg/kg/injection
- ILS (percentage increase in life span) [2]: 52% and 48%
- ILS (percentage increase in life span) (B16 melanocarcinoma): 24% and 17%
- log P [5]: 0.52
- ILS (percentage increase in life span) (ependymoblastoma): 134% and 82%
- solubility [3, 7]: < 100 µg/mL
- OD (optimum dose) (lymphoid leukemia L1210 [4]; [9]): 6.0 mg/kg/injection
- T - C (average weight change of test group minus control) (lymphoid leukemia L1210 [4]; IP L1210, Q4D(1,5,9), at OD): -2.6 grams

SMILES: O=C1C(Cl)=C(Cl)C(=O)C(Cl)=C1Cl [chloranil, tetrachlorobenzoquinone]
- antitumor activity, prior testing (lymphoid leukemia L1210 [6]; L1210 system, prior/literature): inactive

SMILES: O=C1C(N2CC2)=C(N2CC2)C(=O)C(N2CC2)=C1N1CC1 [tetraaziridinyl derivative]
- ILS (lymphoid leukemia L1210 [6]; L1210 leukemia system, earlier evaluation): 39%
